{"source": "patent US20110105554A1", "about": "“MEANS FOR TREATING MYOSIN-RELATED DISEASES” (KINARIS BIOMEDICALS GMBH, priority 2007, published 2011)", "key": {"DdMyosin-5b": {"target": "T1, DdMyosin-5b (Dictyostelium discoideum, UniProt P54697)", "T1 construct": "comprising amino acids 1-698, 1-765, and 1-839 respectively; made in house", "T1 sequence (P54697 1-839)": "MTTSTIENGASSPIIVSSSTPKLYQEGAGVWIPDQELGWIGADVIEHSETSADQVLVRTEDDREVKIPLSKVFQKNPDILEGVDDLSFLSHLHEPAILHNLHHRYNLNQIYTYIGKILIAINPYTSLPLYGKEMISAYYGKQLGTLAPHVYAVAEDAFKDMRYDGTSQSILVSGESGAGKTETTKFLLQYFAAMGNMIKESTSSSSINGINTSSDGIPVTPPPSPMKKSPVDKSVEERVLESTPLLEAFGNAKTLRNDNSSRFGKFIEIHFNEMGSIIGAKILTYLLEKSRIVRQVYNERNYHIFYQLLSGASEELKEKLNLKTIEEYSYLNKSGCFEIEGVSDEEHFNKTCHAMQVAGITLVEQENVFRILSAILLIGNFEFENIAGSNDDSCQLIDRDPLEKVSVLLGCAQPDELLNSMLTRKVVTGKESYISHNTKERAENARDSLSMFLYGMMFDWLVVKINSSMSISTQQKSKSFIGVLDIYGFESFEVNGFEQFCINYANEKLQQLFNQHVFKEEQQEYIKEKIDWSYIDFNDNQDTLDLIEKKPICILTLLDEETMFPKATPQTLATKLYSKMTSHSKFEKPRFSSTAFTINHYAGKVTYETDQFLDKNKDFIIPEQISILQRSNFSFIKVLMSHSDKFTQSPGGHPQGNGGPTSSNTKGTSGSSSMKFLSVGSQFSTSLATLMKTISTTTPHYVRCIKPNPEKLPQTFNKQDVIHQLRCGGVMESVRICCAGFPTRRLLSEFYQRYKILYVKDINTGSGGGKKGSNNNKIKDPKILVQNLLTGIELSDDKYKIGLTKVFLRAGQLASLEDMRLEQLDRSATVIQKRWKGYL", "test": "mantATP binding to DdMyosin-5b (stopped-flow)", "protocol": "Effect of Pentabromopseudilin on ATP binding kinetics to DdMyosin-5b and acto-DdMyosin-5b. (FIG. 10a) Fluorescence transients obtained upon mixing 1 μM DdMyosin-5b with 10 μM mantATP in the absence and presence of 5 μM, 25 μM, 50 μM and 100 μM PBP. Mant-fluorescence was excited at 365 nm and detected after passing through a KV 389 nm cut-off filter. The fluorescent signal of mantATP binding to DdMyosin-5b in the absence of PBP follows a single exponential function (upper curve). The presence of increasing concentrations of PBP lead to reduced amplitudes of the fluorescent signals that are best fit by double exponentials. (FIG. 10b) Plot of the relative amplitudes of mantATP binding to Dd Myosin-5b at different PBP concentrations. […] (FIG. 10c) Fluorescence transients of the ATP induced dissociation of pyrene-acto-DdMyosin-5b in the absence (black curve) and presence (grey curve) of 50 μM PBP. (FIG. 10d) Quench-flow experiments of the ATP hydrolysis reaction upon mixing 5 μM M761 with 25 μM ATP in the absence (solid squares) and presence (open circles) of 50 μM PBP. […]\nThe binding and hydrolysis of ATP and mantATP, respectively by myosin head fragments were analyzed in terms of the seven-step model described by Bagshaw and coworkers (4). Transients in the presence of actin were analyzed according to the mechanisms described in references 5 and 6."}, "chicken myosin-5a": {"target": "chicken myosin-5a (Gallus gallus, UniProt Q02440)", "sequence (Q02440 1-764)": "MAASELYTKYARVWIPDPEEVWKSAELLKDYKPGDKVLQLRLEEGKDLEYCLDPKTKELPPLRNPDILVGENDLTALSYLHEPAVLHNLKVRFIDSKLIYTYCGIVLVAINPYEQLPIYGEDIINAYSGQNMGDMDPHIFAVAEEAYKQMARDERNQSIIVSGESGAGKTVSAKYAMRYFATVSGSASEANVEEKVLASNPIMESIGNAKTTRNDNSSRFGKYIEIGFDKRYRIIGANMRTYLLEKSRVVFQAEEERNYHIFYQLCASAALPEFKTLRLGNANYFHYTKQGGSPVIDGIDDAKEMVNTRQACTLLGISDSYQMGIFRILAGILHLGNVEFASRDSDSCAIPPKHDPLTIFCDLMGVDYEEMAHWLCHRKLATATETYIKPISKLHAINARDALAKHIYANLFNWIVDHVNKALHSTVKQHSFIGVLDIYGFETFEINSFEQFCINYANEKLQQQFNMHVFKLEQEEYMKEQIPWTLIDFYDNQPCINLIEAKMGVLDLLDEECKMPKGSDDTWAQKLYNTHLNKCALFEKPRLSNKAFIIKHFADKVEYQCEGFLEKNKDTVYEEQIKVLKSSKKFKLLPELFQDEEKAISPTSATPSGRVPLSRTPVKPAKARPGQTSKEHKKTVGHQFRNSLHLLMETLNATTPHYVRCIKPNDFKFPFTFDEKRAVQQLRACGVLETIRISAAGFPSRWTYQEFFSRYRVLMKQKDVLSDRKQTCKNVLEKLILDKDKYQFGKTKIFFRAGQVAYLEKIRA", "test": "In vitro motility assay (actin filament sliding), myosin-5a", "assay_type": "biochemical", "settings": "10 μM PBP", "protocol": "(b) Inhibition of chicken myosin-5a by PBP in the in vitro motility assay. The histograms show the average sliding velocity of Rh/Ph-labeled actin filaments in the absence and presence of 10 μM PBP. Myosin-5a moves actin filaments with an average velocity of 0.6 μm/s±0.05 (dark bars); addition of 10 μM PBP into the same flow cell decreases the average sliding velocity to 0.013 μm/s±0.002 (light grey bars).\n(§1) The extent and order of isoform-specific differences in the potency of the inhibitor were additionally confirmed by the results of in vitro motility assays). […] (FIG. 11a) Myosin-5a moves actin filaments with an average velocity of 0.6 μm/s±0.05 (dark bars); addition of 10 μM PBP into the same flow cell lead to a 46-fold reduction of the average sliding velocity to 0.013 μm/s±0.002 (light grey bars).\nDirect functional Assays. Actin-sliding motility was performed at 25° C. using an Olympus IX81 inverted fluorescence microscope. Experimental flow cells were constructed using bovine serum albumin (0.5 mg/ml in assay buffer)-coated glass slides and nitrocellulose-coated coverslips. Myosins were actin affinity-purified immediately before use, to remove rigor heads^20. […] Average sliding velocity was determined from the Gaussian distribution of automatically tracked actin filaments using DiaTrack 3.0 and Origin 7.0."}, "myosin-1E": {"target": "myosin-1E (Dictyostelium discoideum, UniProt Q03479)", "sequence (Q03479 whole entry)": "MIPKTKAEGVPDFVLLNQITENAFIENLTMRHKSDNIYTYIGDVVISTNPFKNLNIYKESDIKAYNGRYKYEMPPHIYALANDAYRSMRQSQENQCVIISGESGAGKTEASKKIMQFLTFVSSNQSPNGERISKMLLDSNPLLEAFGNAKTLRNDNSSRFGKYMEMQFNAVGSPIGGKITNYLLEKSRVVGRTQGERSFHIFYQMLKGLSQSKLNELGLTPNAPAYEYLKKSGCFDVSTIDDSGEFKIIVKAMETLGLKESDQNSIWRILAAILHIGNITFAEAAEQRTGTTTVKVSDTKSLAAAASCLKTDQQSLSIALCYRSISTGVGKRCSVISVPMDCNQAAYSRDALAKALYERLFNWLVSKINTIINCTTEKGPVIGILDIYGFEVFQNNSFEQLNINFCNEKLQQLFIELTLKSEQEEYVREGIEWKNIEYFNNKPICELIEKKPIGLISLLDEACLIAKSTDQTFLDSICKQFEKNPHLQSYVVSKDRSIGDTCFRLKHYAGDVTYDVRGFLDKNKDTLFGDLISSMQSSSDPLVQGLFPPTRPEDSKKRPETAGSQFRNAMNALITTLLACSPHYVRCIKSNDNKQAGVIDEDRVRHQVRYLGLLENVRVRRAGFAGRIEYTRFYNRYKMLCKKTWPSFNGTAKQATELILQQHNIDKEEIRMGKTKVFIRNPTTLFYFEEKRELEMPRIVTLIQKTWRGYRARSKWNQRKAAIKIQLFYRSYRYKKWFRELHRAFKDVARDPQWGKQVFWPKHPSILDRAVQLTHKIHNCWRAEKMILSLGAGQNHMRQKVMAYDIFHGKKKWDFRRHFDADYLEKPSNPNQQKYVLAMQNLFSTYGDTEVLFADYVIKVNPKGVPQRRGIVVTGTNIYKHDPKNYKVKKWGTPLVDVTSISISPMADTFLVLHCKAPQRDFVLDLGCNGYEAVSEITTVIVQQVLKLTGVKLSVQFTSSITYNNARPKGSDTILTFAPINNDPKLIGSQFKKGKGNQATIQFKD", "test": "In vitro motility assay (actin filament sliding), myosin-1E", "assay_type": "biochemical", "settings": "data not shown", "protocol": "as §1\nDirect functional Assays. Actin-sliding motility was performed at 25° C. using an Olympus IX81 inverted fluorescence microscope. Experimental flow cells were constructed using bovine serum albumin (0.5 mg/ml in assay buffer)-coated glass slides and nitrocellulose-coated coverslips. Myosins were actin affinity-purified immediately before use, to remove rigor heads^20. Sliding movement was started by adding assay buffer containing 4 mM ATP, 10 mM DTT, 0.5 mg/ml bovine serum albumin, anti-fade solution, and 0.5% methylcellulose to the flow cell. Average sliding velocity was determined from the Gaussian distribution of automatically tracked actin filaments using DiaTrack 3.0 and Origin 7.0."}, "[1]": {"tested_on": "human hepatocyte carcinoma cells (Hep G2)", "test": "cells", "settings": "Homo sapiens, HepG2, 4 h, read-out: half effective concentration EC50, neutral red uptake", "protocol": "Cytotoxicity may be assayed by determining the cellular uptake of neutral red. Only living cells are capable of neutral red uptake via an active transport mechanism. For an exemplary workflow of a cytotoxicity assay, see FIG. 16.\nFIG. 16: Cytotoxicity assay.\nFIG. 22: Cytotoxic testing of KIN-compounds by neutral red uptake assays. (a) human hepatocyte carcinoma cells (Hep G2) were exposed to KIN-43 for 4 h in the in presence of 1% FBS.\nWe are using a library of common organic molecules and functional groups and are applying an empirical force field description of the nonbonding interactions between a ligand and the binding site in order to build up de novo compounds with spatial and electrostatic properties complementary to the allosteric binding site."}, "[2]": {"tested_on": "heavy meromyosin (HMM) prepared from rabbit skeletal muscle myosin-2", "test": "Inhibitor screening: colorimetric high-throughput myosin ATPase assay with HMM", "assay_type": "biochemical", "source_text": "Preferably, said activity is the capability of said myosin (i) to bind actin; (ii) to convert ATP into ADP and Pi; and/or (iii) to generate force and/or movement. Exemplary or preferred binding assays are described herein above and can be applied for determining whether myosin binds actin, preferably F-actin, and/or nucleotides. Exemplary or preferred activity assays are described herein below and can be applied for determining whether myosin is capable of converting ATP into ADP and Pi or of force production and generation of movement. An exemplary assay for ATPase activity is based on the detection of free phosphate formed upon cleavage of ATP, wherein the detection is effected using malachite green. For an exemplary workflow, see FIG. 17.\nFIG. 6: Histogram showing the relative myosin-2 ATPase activity measured in the absence (+control) and presence of halogenated alkaloids. Blebbistatin und BTS were used as controls. Compounds of the HET-series, BTS and blebbistatin were used at 25 μM final concentration. HET-43 is PBP (pentabromopseudilin). […]\nInhibitor screening. […] The amount of dye formed after 20 min color development at room temperature was determined with a Tecan Infinite™ microplate reader (Cralisheim, Germany)."}}, "data": [{"smiles": "Oc1c(Br)cc(Br)cc1-c1[nH]c(Br)c(Br)c1Br", "note": "[KIN-43]", "values": [{"measurement": "Kd", "setting": "DdMyosin-5b", "value": "21 ± 2", "unit": "µM"}, {"measurement": "fold reduction of the average sliding velocity", "setting": "chicken myosin-5a", "value": 46, "unit": "fold"}, {"measurement": "average sliding velocity of actin filaments", "setting": "chicken myosin-5a; 0.6 μm/s without", "value": 0.013, "unit": "μm/s"}, {"measurement": "inhibition of actin filament sliding", "setting": "myosin-1E", "value": "No significant inhibition"}, {"measurement": "EC50", "setting": "[1]", "value": 0.03, "unit": "µM"}, {"measurement": "inhibition of HMM ATPase activity", "setting": "[2]", "value": "very potent inhibitor"}]}]}
